The conditions of data set [1]: ref PubChem; cited from earlier work.
Data set [2] concerns human melanoma cell line (A375). Nature of the data set: MTT cell viability, melanoma cell line A375. The following applies: 24 h incubation. The class given is cell-based. Here is the method: (§1) The MTT assay, which measures the activity of mitochondrial metabolism, was used for the determination of the influence of alkaloid standards on cancer cell viability.
(§2) For the evaluation of the effect of Berberis species, extracts against normal human skin fibroblast cells (WS1) were used. Both cell lines were received from the American Type Culture Collection (ATCC; Manassas, VA, USA). A375 and WS1 cells were cultured in Dulbecco’s Modified Eagle’s Medium (DMEM) (Sigma Aldrich, St. Louis, MO, USA). The procedure used in investigations of cell viability was described previously. Inactivated fetal bovine serum, penicillin, and streptomycin were added to cells maintained in a CO2 atmosphere at 37 °C. The suspension of cells was applied to a 96-well plate and incubated for 24 h. Next, the medium was removed from the wells, and Berberis species extracts or alkaloid standards were added to the wells. After incubation, MTT working solution was added to each well, and the plate was again incubated for 3 h. Subsequently, an SDS solution was added, and the concentration of the dissolved formazan was measured (for details, see Section S3. Procedure for investigation of cell viability). For the calculation of IC50 values obtained for the plant extracts and alkaloid standards, the IC50 calculator (https://www.aatbio.com/tools/ic50-calculator, accessed on 16 January 2024) was used.
S1. […]

In data set [3] the test system is human skin fibroblasts (WS1 cell line). Nature of the data set: MTT cell viability, skin fibroblasts WS1. The class given is cell-based. As for the experimental part: as §1, §2
S1. […]

For data set [4], the target named is T1, acetylcholinesterase (Homo sapiens, UniProt P22303).
T1 construct: purchased Sigma-Aldrich (St. Louis, MO, USA)
T1 sequence (P22303 32-614, species assumed): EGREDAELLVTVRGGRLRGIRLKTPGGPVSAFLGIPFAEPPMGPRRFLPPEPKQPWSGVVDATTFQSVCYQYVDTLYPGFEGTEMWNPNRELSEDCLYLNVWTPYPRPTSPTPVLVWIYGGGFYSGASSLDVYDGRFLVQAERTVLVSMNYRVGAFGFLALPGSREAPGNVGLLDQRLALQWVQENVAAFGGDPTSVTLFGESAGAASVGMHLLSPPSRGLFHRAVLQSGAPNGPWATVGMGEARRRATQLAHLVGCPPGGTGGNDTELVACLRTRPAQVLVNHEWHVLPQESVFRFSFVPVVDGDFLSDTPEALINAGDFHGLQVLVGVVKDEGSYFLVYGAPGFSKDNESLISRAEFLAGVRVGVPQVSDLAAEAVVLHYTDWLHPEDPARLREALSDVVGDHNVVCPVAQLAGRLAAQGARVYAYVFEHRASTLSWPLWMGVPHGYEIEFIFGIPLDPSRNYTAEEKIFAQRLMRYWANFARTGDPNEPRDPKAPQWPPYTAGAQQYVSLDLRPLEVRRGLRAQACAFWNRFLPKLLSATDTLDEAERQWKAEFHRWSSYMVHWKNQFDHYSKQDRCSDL
Type of data set: biochemical. The settings on record: alkaloid standards; 15 min at 37 °C, pH 7.8. As for the experimental part: (§3) All experiments were repeated three times.
S1. Samples preparation for determination of acetylcholinesterase inhibitory activity A stock solutions of reagents were prepared by dissolving of acetylcholinesterase at con-centrations 200 U/mL or 2 U/mL, acetylthiocholine iodide at concentration 0.0125 M and 5′- dithiobis-(2-nitrobenzoic acid) at concentration 0.00167 M in phosphate buffer at pH 7.8.
Samples for determination of acetylcholinesterase inhibitory activity were obtained by mixing of 50 µL of acetylthiocholine iodide, 50 µL of 5′-dithiobis-(2-nitrobenzoic acid), 50 µL of […]
as §3
All experiments were performed in triplicates.

The target of data set [5] is T2, butyrylcholinesterase (Homo sapiens, UniProt P06276).
T2 construct: purchased Sigma-Aldrich (St. Louis, MO, USA)
T2 sequence (P06276 29-602): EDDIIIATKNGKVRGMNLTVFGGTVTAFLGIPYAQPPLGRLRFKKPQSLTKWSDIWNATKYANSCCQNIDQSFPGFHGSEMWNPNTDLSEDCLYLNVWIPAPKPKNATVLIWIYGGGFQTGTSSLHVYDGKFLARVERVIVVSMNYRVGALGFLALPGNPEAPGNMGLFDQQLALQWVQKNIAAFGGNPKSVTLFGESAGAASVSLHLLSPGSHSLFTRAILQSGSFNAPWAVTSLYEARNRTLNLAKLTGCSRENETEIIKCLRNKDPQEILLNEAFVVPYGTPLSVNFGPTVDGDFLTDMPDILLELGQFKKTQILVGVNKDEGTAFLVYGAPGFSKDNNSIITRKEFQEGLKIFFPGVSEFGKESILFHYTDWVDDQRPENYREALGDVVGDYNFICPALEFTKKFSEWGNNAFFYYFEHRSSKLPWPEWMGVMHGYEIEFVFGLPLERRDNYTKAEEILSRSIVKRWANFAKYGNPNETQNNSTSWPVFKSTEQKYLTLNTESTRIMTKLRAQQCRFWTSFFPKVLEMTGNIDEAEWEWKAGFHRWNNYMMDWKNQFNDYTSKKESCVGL
Nature of the data set: Butyrylcholinesterase inhibition, Ellman method with HPLC-DAD. The class given is biochemical. The following applies: alkaloid standards; 15 min at 37 °C, pH 7.8.

For data set [6], the target named is T1, acetylcholinesterase. Nature of the data set: Kinetic study of acetylcholinesterase inhibition (Lineweaver-Burk plots and replots). The class given is biochemical. The following applies: for type of acetylcholinesterase inhibition: Lineweaver-Burk plots. Here is the method: Lineweaver–Burk and Dixon plots were used for the determination of the type of inhibition and inhibition constants (Ki value) of these alkaloids. […] The Ki value was estimated from the replots of the slope of the individual Lineweaver–Burk plots versus the inhibitor concentrations (Figure 5B). […] The type of acetylcholinesterase inhibition and Ki value was determined for palmatine by the same method.

Data set [7] concerns the target T2, butyrylcholinesterase. The following applies: cited from earlier work.
The target of data set [8] is T1, acetylcholinesterase. The settings on record: cited from earlier work.
Data set [9] deals with T1, acetylcholinesterase. The following applies: previously reported; cited from earlier work.
For data set [10], the system named is leukemic (Jurkat, MOLT-4), colon (HT-29), cervix (HeLa), breast (MCF-7) cancer cells. The following applies: MOLT-4, HT-29, HeLa, read-out: IC50 values, proliferation and viability; cited from earlier work.
Data set [11] deals with T2, butyrylcholinesterase. The settings on record: read-out: IC50 butyrylcholinesterase; alkaloids isolated from Berberis vulgaris root bark; cited from earlier work.

Like-named read-outs stand apart in the source and are kept apart here.

Results on eight compounds are retold here after publication PMC10933966, “In Vitro and In Silico of Cholinesterases Inhibition and In Vitro and In Vivo Anti-Melanoma Activity Investigations of Extracts Obtained from Selected Berberis Species” (Molecules, 2024).

A word on the Log P: it is a log measure of how a compound divides between an organic and an aqueous phase. As to `C[n+]1cc2c3c(ccc2c2ccc4cc5c(cc4c21)OCO5)OCO3` [Sanguinarine, sanguinarine], in data set [1], the “Hydrogen bond acceptor count” value is reported as 4, the “Hydrogen bond donor count” value is 0, the “Log P” value is given as 4.4 and the Polar surface area is on record as 40.8 Å².

Consider `N.N.[Cl][Pt][Cl]` [Cisplatin, cisplatin], for which, in data set [2], the “IC50 A375” value worked out at 23.8 µg/mL. In [3] (human skin fibroblast cell line WS1, MTT, 24 h incubation), the “IC50 WS1” value turned out to be 44.07 µg/mL.

For orientation: Ki means the dissociation constant of the complex between target and ligand, obtained from inhibition or displacement. Consider `COc1cc2c(cc1OC)-c1cc3ccc(OC)c(OC)c3c[n+]1CC2` [Palmatine, palmatine], for which, at acetylcholinesterase [4], the IC50 came out at 29.2 ± 1.59 µM and the “IC50 Values Acetylcholinesterase” value came to 10.27 µg/mL. At butyrylcholinesterase [5], the IC50 was determined as 189 ± 42.5 µM and the “IC50 Values Butyrylcholinesterase” value amounted to 66.74 µg/mL. Further, at acetylcholinesterase [6], the “type of acetylcholinesterase inhibition” value is listed as “mixed-type”. Besides, on acetylcholinesterase [6] (replot of Lineweaver-Burk slopes vs inhibitor concentration, substrate acetylthiocholine iodide), the Ki is 17 µM. For the same compound, on butyrylcholinesterase [7], the IC50 butyrylcholinesterase was 116.7 µg/mL. Also, on acetylcholinesterase [8], the IC50 acetylcholinesterase was 7.4 µg/mL. Also, at acetylcholinesterase [9], the “mode of acetylcholinesterase inhibition” value is reported as “mixed mode”. In [1], the “Hydrogen bond acceptor count” value is listed as 4, the “Hydrogen bond donor count” value was 0, the “Log P” value was 3.7 and the Polar surface area is reported as 40.8 Å².

Regarding `COc1ccc2cc3[n+](cc2c1OC)CCc1cc2c(cc1-3)OCO2` [Berberine, berberine], the “type of acetylcholinesterase inhibition” value at acetylcholinesterase [6] is reported as “noncompetitive”. Moreover, the IC50 in data set [3] (Homo sapiens, WS1, 24 h, read-out: IC50 WS1) worked out at 95.3 µg/mL. Also, the “mode of acetylcholinesterase inhibition” value on acetylcholinesterase [9] is reported as “non-competitive”. Further, in data set [1], the “Hydrogen bond acceptor count” value is 4, the “Hydrogen bond donor count” value is on record as 0, the “Log P” value was 3.6 and the Polar surface area is on record as 40.8 Å².

For the compound Bersavine, the IC50 in [10] is 8.1 to 11 µM.

With `COc1cc2c3cc1Oc1c(O)c(OC)cc4c1[C@H](Cc1ccc(cc1)Oc1cc(ccc1O)C[C@H]3N(C)CC2)N(C)CC4` [aromoline], the IC50 at butyrylcholinesterase [11] was 0.82 µM.

On to `COc1ccc2c(c[n+](C)c3c4cc5c(cc4ccc23)OCO5)c1OC` [Chelerythrine, chelerythrine], for which, in data set [1], the “Hydrogen bond acceptor count” value is reported as 4, the “Hydrogen bond donor count” value is 0, the “Log P” value is 4.6 and the Polar surface area is 40.8 Å².

On to `CN1CCc2cc3c(cc2C(=O)Cc2ccc4c(c2C1)OCO4)OCO3` [Protopine, protopine], for which, in data set [1], the “Hydrogen bond acceptor count” value is on record as 6, the “Hydrogen bond donor count” value is 0, the “Log P” value is 2.8 and the Polar surface area is given as 57.2 Å².
